Non-standard residues stand in square brackets, D forms with d. Residues, ends and D or L forms follow the SMILES beside them. Groups on a side chain read outwards from the residue. *: point of attachment. Phe(4-NH2) = Nc1ccc(C[C@H](N)C(=O)O)cc1; X1 = CCCCCCN(CC(=O)*)C(=O)[C@H](N)CCCCN; Aib = CC(C)(N)C(=O)O; Sar = CNCC(=O)O
Assays:
Insulin Receptor [1] = molecular target: T1, Insulin Receptor (Homo sapiens, UniProt P06213); test: Insulin receptor binding assay (competition, scintillation proximity); conditions: Table 9; IGF-1 receptor IC50 versus insulin receptor IC50
T1 sequence (P06213 28-758 limits assumed): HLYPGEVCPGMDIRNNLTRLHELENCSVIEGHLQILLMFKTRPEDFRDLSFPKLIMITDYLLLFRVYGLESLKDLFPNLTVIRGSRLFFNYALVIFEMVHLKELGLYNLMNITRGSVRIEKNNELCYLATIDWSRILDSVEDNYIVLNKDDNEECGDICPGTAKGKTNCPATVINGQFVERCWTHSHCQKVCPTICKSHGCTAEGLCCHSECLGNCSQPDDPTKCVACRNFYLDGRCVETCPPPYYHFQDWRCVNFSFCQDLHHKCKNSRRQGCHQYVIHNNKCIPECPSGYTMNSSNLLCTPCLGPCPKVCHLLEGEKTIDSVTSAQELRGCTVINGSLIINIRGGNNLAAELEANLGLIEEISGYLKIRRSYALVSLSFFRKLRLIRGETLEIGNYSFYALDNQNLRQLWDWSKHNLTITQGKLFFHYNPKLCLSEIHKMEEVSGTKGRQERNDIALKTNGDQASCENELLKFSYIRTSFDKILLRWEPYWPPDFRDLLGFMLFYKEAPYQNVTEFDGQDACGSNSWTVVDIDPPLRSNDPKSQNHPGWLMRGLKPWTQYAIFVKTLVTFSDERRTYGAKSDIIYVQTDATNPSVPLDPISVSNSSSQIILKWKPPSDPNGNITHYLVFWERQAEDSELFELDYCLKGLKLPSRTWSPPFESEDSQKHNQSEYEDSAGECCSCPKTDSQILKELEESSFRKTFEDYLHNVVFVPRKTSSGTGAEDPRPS
T1 sequence (P06213 763-1382 partner limits assumed): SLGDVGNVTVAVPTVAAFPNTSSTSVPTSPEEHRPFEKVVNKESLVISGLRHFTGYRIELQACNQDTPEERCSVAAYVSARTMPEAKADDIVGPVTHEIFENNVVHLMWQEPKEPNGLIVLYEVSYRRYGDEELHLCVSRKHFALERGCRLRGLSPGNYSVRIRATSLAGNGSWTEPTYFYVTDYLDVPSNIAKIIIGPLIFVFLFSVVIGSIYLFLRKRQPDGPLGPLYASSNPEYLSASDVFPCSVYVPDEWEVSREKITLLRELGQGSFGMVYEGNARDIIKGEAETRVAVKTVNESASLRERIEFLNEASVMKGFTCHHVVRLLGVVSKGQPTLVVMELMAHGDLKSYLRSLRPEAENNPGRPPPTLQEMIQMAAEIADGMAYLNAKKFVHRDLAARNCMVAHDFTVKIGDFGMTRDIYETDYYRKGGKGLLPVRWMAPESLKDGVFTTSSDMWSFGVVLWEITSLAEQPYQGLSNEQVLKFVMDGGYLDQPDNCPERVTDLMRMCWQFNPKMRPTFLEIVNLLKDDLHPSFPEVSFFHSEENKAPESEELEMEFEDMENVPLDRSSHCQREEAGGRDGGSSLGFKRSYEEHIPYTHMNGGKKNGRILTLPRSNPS

Insulin Receptor [2] = molecular target: T1, Insulin Receptor; test: Insulin receptor phosphorylation assay (receptor transfected HEK293 cells); type: cell-based; set-up: expressed in transfected cells; host or cells: HEK293; conditions: Table 10; IGF-1 receptor EC50 versus insulin receptor EC50
[3] = Dipeptide half life on IGF1 dipeptide extended (p-NH2-F)A19 amide derivatives in PBS (HPLC); type: physicochemical
Method: IGF-1 peptides was measured to determine the impact of the peptide sequence or heteroduplex on the dipeptide cleavage.
Accordingly, the IGF1A chain alone was determined to be a good model for the study of pro-drug half life on IGF1 B:A (Y^B16L^B17) derivative peptides. […] For simplicity, prodrug half lives were determined using only the IGF1 A chain in the absence of the B chain. The half lives of each propeptide was determined as described in Example 5.
The IGF^B16B17 derivative peptide prodrugs were incubated in PBS, pH 7.4 at 37° C. and at predetermined time intervals an aliquot was taken and further degradation was quenched with 0.1% TFA and the aliquot was subjected to analytical HPLC analysis. Peaks a and b, representing the prodrug and active forms of the IGF^B16B17 derivative peptide were identified with LC-MS and quantified by integration of peak area an HPLC. FIGS. 9A-9C show the output of an HPLC analysis of the degradation of the IGF^B16B17 derivativepeptide prodrug: IGF1A(Ala)^6,7,11,20(Aib-Pro-pNH-F)^19. Aliquots were taken at 20 minutes (FIG. 9A), 81 minutes (FIG. 9B) and 120 minutes (FIG. 9C) after beginning the incubation of the prodrug in PBS.

Row | SMILES | Selective Ratio (Insulin Receptor [2]) | Half Life ([3]; buffer) | Half Life, PBS ([3]; buffer) | also measured
1 | CC[C@H](C)[C@H](NC(=O)CN)C(=O)N[C@H](C(=O)N[C@@H](CC(=O)O)C(=O)N[C@@H](CCC(=O)O)C(=O)N[C@H]1CSSC[C@@H]2NC(=O)[C@H](CO)NC(=O)[C@H](CCCNC(=N)N)NC(=O)[C@H](Cc3ccccc3)NC(=O)[C@H](CSSC[C@H](NC(=O)[C@H](CC(C)C)NC(=O)[C@@H](NC(=O)[C@H](CCC(=O)O)NC(=O)[C@@H]3CCCN3C(=O)CN)[C@@H](C)O)C(=O)NCC(=O)N[C@@H](C)C(=O)N[C@@H](CCC(=O)O)C(=O)N[C@@H](CC(C)C)C(=O)N[C@@H](C(C)C)C(=O)N[C@@H](CC(=O)O)C(=O)N[C@@H](C)C(=O)N[C@@H](CC(C)C)C(=O)N[C@@H](Cc3ccc(O)cc3)C(=O)N[C@@H](CC(C)C)C(=O)N[C@@H](C(C)C)C(=O)N[C@H](C(=O)NCC(=O)N[C@@H](CC(=O)O)C(=O)N[C@@H](CCCNC(=N)N)C(=O)NCC(=O)N[C@@H](Cc3ccccc3)C(=O)N[C@@H](Cc3ccc(O)cc3)C(N)=O)CSSC[C@@H](C(=O)N[C@@H](C)C(N)=O)NC(=O)[C@H](Cc3ccc(O)cc3)NC(=O)[C@H](CCSC)NC(=O)[C@H](CCC(=O)O)NC(=O)[C@H](CC(C)C)NC(=O)[C@H](CCCNC(=N)N)NC(=O)[C@H](CCCNC(=N)N)NC(=O)[C@H](CC(C)C)NC(=O)[C@H](CC(=O)O)NC2=O)NC1=O)C(C)C [IGF-1 A:B (E10Y16L17) DPI] | – | – | – | Ratio (Insulin Receptor [1]): 60.2
2 | CC[C@H](C)[C@H](NC(=O)CN)C(=O)N[C@H](C(=O)N[C@@H](CC(=O)O)C(=O)N[C@@H](CCC(=O)O)C(=O)N[C@H]1CSSC[C@@H]2NC(=O)[C@H](CO)NC(=O)[C@H](C)NC(=O)[C@H](Cc3c[nH]cn3)NC(=O)[C@H](CSSC[C@H](NC(=O)[C@H](CC(C)C)NC(=O)[C@H](Cc3c[nH]cn3)NC(=O)[C@H](CCC(=O)O)NC(=O)[C@@H]3CCCN3C(=O)CN)C(=O)NCC(=O)N[C@@H](C)C(=O)N[C@@H](CC(=O)O)C(=O)N[C@@H](CC(C)C)C(=O)N[C@@H](C(C)C)C(=O)N[C@@H](CC(=O)O)C(=O)N[C@@H](C)C(=O)N[C@@H](CC(C)C)C(=O)N[C@@H](Cc3ccc(O)cc3)C(=O)N[C@@H](CC(C)C)C(=O)N[C@@H](C(C)C)C(=O)N[C@H](C(=O)NCC(=O)N[C@@H](CC(=O)O)C(=O)N[C@@H](CCCNC(=N)N)C(=O)NCC(=O)N[C@@H](Cc3ccccc3)C(=O)N[C@@H](Cc3ccc(O)cc3)C(N)=O)CSSC[C@@H](C(=O)N[C@@H](CC(N)=O)C(=O)O)NC(=O)[C@H](Cc3ccc(O)cc3)NC(=O)[C@H](CCSC)NC(=O)[C@H](CCC(=O)O)NC(=O)[C@H](CC(C)C)NC(=O)[C@H](CCCNC(=N)N)NC(=O)[C@H](CCCNC(=N)N)NC(=O)[C@H](CC(C)C)NC(=O)[C@H](CC(=O)O)NC2=O)NC1=O)C(C)C | 2.81 | – | – | –
3 | CCCCCCN(CC(=O)Nc1ccc(C[C@H](NC(=O)[C@H](CCSC)NC(=O)[C@H](CCC(=O)O)NC(=O)[C@H](CC(C)C)NC(=O)[C@H](CCCNC(=N)N)NC(=O)[C@H](CCCNC(=N)N)NC(=O)[C@H](CC(C)C)NC(=O)[C@H](CC(=O)O)NC(=O)[C@H](C)NC(=O)[C@H](CO)NC(=O)[C@H](CCCNC(=N)N)NC(=O)[C@H](Cc2ccccc2)NC(=O)[C@H](C)NC(=O)[C@H](C)NC(=O)[C@H](CCC(=O)O)NC(=O)[C@H](CC(=O)O)NC(=O)[C@@H](NC(=O)[C@@H](NC(=O)CN)[C@@H](C)CC)C(C)C)C(=O)N[C@@H](C)C(=O)N[C@@H](C)C(N)=O)cc1)C(=O)[C@H](N)CCCCN [dK N-hexyl Gly] (H-GIVDEAAFRSADLRRLEM[Phe(4-NH2)](X1)AA-NH2; N-terminus assumed) | – | – | – | half-life ([3]; buffer, pH 7.4): 10.6 h
4 | CC[C@H](C)[C@H](NC(=O)CN)C(=O)N[C@H](C(=O)N[C@@H](CC(=O)O)C(=O)N[C@@H](CCC(=O)O)C(=O)N[C@H]1CSSC[C@@H]2NC(=O)[C@H](CO)NC(=O)[C@H](C)NC(=O)[C@H](Cc3c[nH]cn3)NC(=O)[C@H](CSSC[C@H](NC(=O)[C@H](CC(C)C)NC(=O)[C@H](Cc3c[nH]cn3)NC(=O)[C@H](CCC(=O)O)NC(=O)[C@@H]3CCCN3C(=O)CN)C(=O)NCC(=O)N[C@@H](C)C(=O)N[C@@H](CC(=O)O)C(=O)N[C@@H](CC(C)C)C(=O)N[C@@H](C(C)C)C(=O)N[C@@H](CC(=O)O)C(=O)N[C@@H](C)C(=O)N[C@@H](CC(C)C)C(=O)N[C@@H](Cc3ccc(O)cc3)C(=O)N[C@@H](CC(C)C)C(=O)N[C@@H](C(C)C)C(=O)N[C@H](C(=O)NCC(=O)N[C@@H](CC(=O)O)C(=O)N[C@@H](C)C(=O)NCC(=O)N[C@@H](Cc3ccccc3)C(=O)N[C@@H](Cc3ccc(O)cc3)C(N)=O)CSSC[C@@H](C(=O)N[C@@H](CC(N)=O)C(=O)O)NC(=O)[C@H](Cc3ccc(O)cc3)NC(=O)[C@H](CCSC)NC(=O)[C@H](CCC(=O)O)NC(=O)[C@H](CC(C)C)NC(=O)[C@H](CCCNC(=N)N)NC(=O)[C@H](CCCNC(=N)N)NC(=O)[C@H](CC(C)C)NC(=O)[C@H](CC(=O)O)NC2=O)NC1=O)C(C)C | 32.54 | – | – | –
5 | CC[C@H](C)[C@H](NC(=O)CN)C(=O)N[C@H](C(=O)N[C@@H](CC(=O)O)C(=O)N[C@@H](CCC(=O)O)C(=O)N[C@H]1CSSC[C@@H]2NC(=O)[C@H](CO)NC(=O)[C@H](CCCNC(=N)N)NC(=O)[C@H](Cc3ccccc3)NC(=O)[C@H](CSSC[C@H](NC(=O)[C@H](CC(C)C)NC(=O)[C@@H](NC(=O)[C@H](CCC(=O)O)NC(=O)[C@@H]3CCCN3C(=O)CN)[C@@H](C)O)C(=O)NCC(=O)N[C@@H](C)C(=O)N[C@@H](CC(=O)O)C(=O)N[C@@H](CC(C)C)C(=O)N[C@@H](C(C)C)C(=O)N[C@@H](CC(=O)O)C(=O)N[C@@H](C)C(=O)N[C@@H](CC(C)C)C(=O)N[C@@H](Cc3ccc(O)cc3)C(=O)N[C@@H](CC(C)C)C(=O)N[C@@H](C(C)C)C(=O)N[C@H](C(=O)NCC(=O)N[C@@H](CC(=O)O)C(=O)N[C@@H](CCCNC(=N)N)C(=O)NCC(=O)N[C@@H](Cc3ccccc3)C(=O)N[C@@H](Cc3ccc(O)cc3)C(N)=O)CSSC[C@@H](C(=O)N[C@@H](C)C(=O)O)NC(=O)[C@H](Cc3ccc(O)cc3)NC(=O)[C@H](CCSC)NC(=O)[C@H](CCC(=O)O)NC(=O)[C@H](CC(C)C)NC(=O)[C@H](CCCNC(=N)N)NC(=O)[C@H](CCCNC(=N)N)NC(=O)[C@H](CC(C)C)NC(=O)[C@H](CC(=O)O)NC2=O)NC1=O)C(C)C [IGF-1 A:B(D10Y16L17) DPI A-COOH] | 9.75 | – | – | –
6 | CC[C@H](C)[C@H](NC(=O)CN)C(=O)N[C@H](C(=O)N[C@@H](CC(=O)O)C(=O)N[C@@H](CCC(=O)O)C(=O)N[C@@H](C)C(=O)N[C@@H](C)C(=O)N[C@@H](Cc1ccccc1)C(=O)N[C@@H](CCCNC(=N)N)C(=O)N[C@@H](CO)C(=O)N[C@@H](C)C(=O)N[C@@H](CC(=O)O)C(=O)N[C@@H](CC(C)C)C(=O)N[C@@H](CCCNC(=N)N)C(=O)N[C@@H](CCCNC(=N)N)C(=O)N[C@@H](CC(C)C)C(=O)N[C@@H](CCC(=O)O)C(=O)N[C@@H](CCSC)C(=O)N[C@@H](Cc1ccc(NC(=O)[C@H]2CCCN2C(=O)C(C)(C)N)cc1)C(=O)N[C@@H](C)C(=O)N[C@@H](C)C(N)=O)C(C)C [AiB dPro] (H-GIVDEAAFRSADLRRLEM[Phe(4-NH2)]([dP-Aib])AA-NH2) | – | 1.9 h | 2.1 h | –
7 | CC[C@H](C)[C@H](NC(=O)CN)C(=O)N[C@H](C(=O)N[C@@H](CC(=O)O)C(=O)N[C@@H](CCC(=O)O)C(=O)N[C@@H](C)C(=O)N[C@@H](C)C(=O)N[C@@H](Cc1ccccc1)C(=O)N[C@@H](CCCNC(=N)N)C(=O)N[C@@H](CO)C(=O)N[C@@H](C)C(=O)N[C@@H](CC(=O)O)C(=O)N[C@@H](CC(C)C)C(=O)N[C@@H](CCCNC(=N)N)C(=O)N[C@@H](CCCNC(=N)N)C(=O)N[C@@H](CC(C)C)C(=O)N[C@@H](CCC(=O)O)C(=O)N[C@@H](CCSC)C(=O)N[C@@H](Cc1ccc(NC(=O)[C@@H]2CCCN2C(=O)C(C)(C)N)cc1)C(=O)N[C@@H](C)C(=O)N[C@@H](C)C(N)=O)C(C)C [AiB Pro] (H-GIVDEAAFRSADLRRLEM[Phe(4-NH2)]([Pro-Aib])AA-NH2) | – | 2.2 h | 2.2 h | degradation of prodrug to active form (HPLC), in words ([3]; pH 7.4): spontaneous, non-enzymatic conversion
8 | CC[C@H](C)[C@H](NC(=O)CN)C(=O)N[C@H](C(=O)N[C@@H](CC(=O)O)C(=O)N[C@@H](CCC(=O)O)C(=O)N[C@@H](C)C(=O)N[C@@H](C)C(=O)N[C@@H](Cc1ccccc1)C(=O)N[C@@H](CCCNC(=N)N)C(=O)N[C@@H](CO)C(=O)N[C@@H](C)C(=O)N[C@@H](CC(=O)O)C(=O)N[C@@H](CC(C)C)C(=O)N[C@@H](CCCNC(=N)N)C(=O)N[C@@H](CCCNC(=N)N)C(=O)N[C@@H](CC(C)C)C(=O)N[C@@H](CCC(=O)O)C(=O)N[C@@H](CCSC)C(=O)N[C@@H](Cc1ccc(NC(=O)CN(C)C(=O)[C@@H](N)CCCCN)cc1)C(=O)N[C@@H](C)C(=O)N[C@@H](C)C(N)=O)C(C)C [K Sar] (H-GIVDEAAFRSADLRRLEM[Phe(4-NH2)]([Sar-Lys])AA-NH2) | – | 21.8 h | 21.8 h | –

From patent US20110245164A1 (INDIANA UNIVERSITY RESEARCH AND TECHNOLOGY, published 2011)
